Data set [1] deals with A549 cells. As to the kind of experiment: cells. The following applies: Homo sapiens, A549, 72 h, read-out: GI50 ± SD.
In data set [2] the target is T1, TOP1-DNA covalent cleavage complexes (TOP1cc) (Homo sapiens, UniProt P11387).
T1 sequence (P11387 2-765 limits assumed): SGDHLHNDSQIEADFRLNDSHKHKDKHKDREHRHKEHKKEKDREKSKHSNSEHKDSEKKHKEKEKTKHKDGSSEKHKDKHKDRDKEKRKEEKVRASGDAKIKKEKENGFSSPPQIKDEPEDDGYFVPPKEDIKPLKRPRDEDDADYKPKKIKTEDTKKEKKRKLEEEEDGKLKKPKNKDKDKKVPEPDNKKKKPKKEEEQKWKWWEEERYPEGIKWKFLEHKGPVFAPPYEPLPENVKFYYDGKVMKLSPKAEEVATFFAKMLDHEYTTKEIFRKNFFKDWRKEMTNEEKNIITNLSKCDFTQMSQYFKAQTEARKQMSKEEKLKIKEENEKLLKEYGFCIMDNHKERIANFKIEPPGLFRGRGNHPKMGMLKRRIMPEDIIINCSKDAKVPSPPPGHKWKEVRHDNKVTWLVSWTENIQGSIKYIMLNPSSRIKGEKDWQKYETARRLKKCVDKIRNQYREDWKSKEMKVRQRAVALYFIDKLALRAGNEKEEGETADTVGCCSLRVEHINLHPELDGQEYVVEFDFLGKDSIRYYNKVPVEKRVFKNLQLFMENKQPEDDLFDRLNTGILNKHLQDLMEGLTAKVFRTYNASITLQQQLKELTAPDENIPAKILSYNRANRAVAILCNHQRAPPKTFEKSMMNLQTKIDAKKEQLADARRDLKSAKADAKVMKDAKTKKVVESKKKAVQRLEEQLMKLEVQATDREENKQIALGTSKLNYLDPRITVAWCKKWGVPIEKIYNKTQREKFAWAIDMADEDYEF
As to the kind of experiment: Immunocomplex of enzyme to DNA. The following applies: HCT116 cells; for Induction of cellular TOP1cc: 1 h, CPT 25 and 50 μM, 12 at 25, 50 and 100 μM.

The test system of data set [3] is γH2AX foci. As to the kind of experiment: γH2AX foci immunofluorescence in HCT116 cells. The following applies: 1 μM, 3 h. It counts as cell-based, human.
Data set [4] deals with human colon cancer HCT116 xenograft. As to the kind of experiment: In vivo antitumor efficiency, HCT116 xenograft. The following applies: HCT116 xenograft nude mice; 5, 10, 20 mg/kg ip daily.
For data set [5], the system named is human breast cancer MCF-7 xenograft. As to the kind of experiment: In vivo antitumor efficiency, MCF-7 xenograft. The following applies: MCF-7 xenograft nude mice; 5, 10, 20 mg/kg ip daily.
Data set [6] concerns HCT116 cells. The following applies: 0.5, 1 and 2 μM, 24 h.
Data set [7] concerns Kunming male mice. As to the kind of experiment: Acute toxicity in vivo. The following applies: n = 6.

Regarding `CC[C@@]1(O)C(=O)OCc2c1cc1n(c2=O)Cc2cc3ccccc3nc2-1` [CPT, camptothecin, reference compound], the GI50 in data set [1] was 99 ± 17 nM. Also, in data set [2], the “Induction of cellular TOP1cc” value is given as “induce the formation of cellular TOP1cc in a dose-dependent manner”.
Take `CNCCn1c(=O)c2cc(OC)c(OC)cc2c2ccc3cc4c(cc3c21)OCO4` [Compound 12, 2,3-Dimethoxy-12-(2-(methylamino)ethyl)-[1,3]dioxolo[4’,5’:4,5]benzo[1,2-c]phenanthridin-13(12H)-one]: the “Induction of γH2AX foci (DNA damage)” value in data set [3] is recorded as “effectively induces γH2AX foci”. For the same molecule, the tumor volume result in data set [4] and in data set [5] was “significantly reduced the tumor volume in a dose-dependent manner” each time. The Induction of apoptosis entry in data set [6] was “induce HCT116 cells apoptosis in a dose-dependent manner”. The mice survival result in data set [7] (122.9 mg/kg single ip dose, 7 days) was “all mice survived”; in data set [7] (153.6 mg/kg single ip dose, 7 days) it was “four mice survived”; in data set [7] (192 mg/kg single ip dose, 7 days), “three mice survived”; in data set [7] (240 mg/kg single ip dose, 7 days), “two mice survived”; in data set [7] (300 mg/kg single ip dose), “All mice died within 5 days”. In data set [2] (25 μM), the “Induction of cellular TOP1cc compared with CPT” value is listed as “higher ability to induce cellular TOP1cc at 25 μM than CPT”. Further, the “Induction of cellular TOP1cc” value in data set [2] is “induce the formation of cellular TOP1cc in a dose-dependent manner”.

(Values after PMC8274952 (European journal of medicinal chemistry, 2019).)
